From patent US8735150B2, “Methods for detecting embryonic stem cells, induced pluripotent stem cells, or cells undergoing reprogramming to produce induced pluripotent stem cells” (New York University, priority 2010, dated 2014) come the findings set out here.

Assay [1] relates to Oct4-GFP transgenic MEF transfected with Oct4, Sox2, Klf4 and c-Myc. Put plainly: CDy1 staining of cells at early stages of reprogramming (fluorescence microscopy). Type of assay: cell-based, mouse. The conditions noted are these: incubated for one hour. The procedure:
Oct4-GFP transgenic MEF transfected with retrovirus expressing Oct4, Sox2, Klf4, and c-Myc were incubated with CDy1 at 3, 5, 7, and 9 dpi for one hour.
After excess CDy1 was washed out by replacing culture medium, fluorescent cell images were taken using fluorescence microscope.
At 3 and 5 dpi, any dramatic morphological differences between the cells were not observed by phase contrast bright field microscopy (FIG. 16).

Assay [2] relates to mESC. Nature of the assay: Flow cytometry of mESC and MEF incubated separately with rosamine hit compounds (secondary screening). The conditions noted are these: 500 nM. Type of assay: cell-based, mouse. How it is done: FIG. 5 is a table of flow cytometry results, which show the structure-cell selectivity relationship in CDy1 analogues. The ratios of mESC to MEF fluorescence mean values obtained from flow cytometry were used for cell selectivity analysis. The cells were incubated with 500 nM of each compound for one hour and washed with phosphate buffered saline (PBS) for flow cytometry.
MEFs and mESCs were cultured in 60 mm culture dishes for 24 hours in the presence of 500 nM of hit compounds including CDy1. The cells were harvested by trypsin treatment, washed with PBS, and resuspended in PBS. The fluorescence intensity of the cells was measured with flow cytometry (BD™ LSR II) with PE-Texas Red filter (excitation at 488 nm, emission at 615 nm). The dot plot images for each cell type were overlaid using FlowJo7 (Tree Star Inc., Ashland, Oreg.). […]
For a high-throughput screening, mESC and MEF feeder cells were incubated with 280 rosamine compounds at a concentration of 500 nM in 384-well microplates. After 0.5 hours, 24 hours, and 48 hours, TRITC fluorescence and bright field images were taken using an ImageXpress^MICRO imaging system. […] As a secondary screening, mESC and MEF were incubated separately with each of the hit compounds and these were analyzed using flow cytometry (see work flow set out in FIGS. 1A-1B; results shown in FIGS. 2A-2C and FIG. 3).
Background: In flow cytometry, cells or beads pass a laser one at a time.

Assay [3] has as its system cells undergoing reprogramming to induced pluripotent stem cells (Oct4-GFP transgenic MEF). Nature of the assay: FACS isolation of cells undergoing reprogramming with CDy1 and counting of GFP-positive iPS cell colonies. Type of assay: cell-based, mouse. The settings on record: sorted by FACS at 10 dpi, 7% of total cell number. How it is done:
Oct4-GFP transgenic mouse embryonic fibroblasts (MEF) transfected with retrovirus expressing Oct4, Sox2, Klf4, and c-Myc were incubated with CDy1 at 10 days post infection (dpi). The cells were harvested using trypsin-EDTA and CDy1^bright and CDy1^dim cells defined as 7% of the total cell number at each end were collected by FACS, plated in culture media, and allowed to grow until 20 dpi for counting the number of induced pluripotent stem (“iPS”) cell colonies which were identified by GFP signal (FIG. 15A).
Among the many cell colonies observed in the bright field images, GFP signal was detected from some of them by fluorescence excitation (FIG. 15B).

A further assay relates to differentiated mESC. Put plainly: CDy1 staining of differentiated mESC after LIF removal. Type of assay: cell-based, mouse. The conditions noted are these: three days culture without LIF. An excerpt:
Morphologically distinguishable differentiated cells were observed after three days culture of mESC in the absence of LIF. As shown in the center panel, most of those cells were CDy1 negative, while some other cells that retained mESC morphology were stained by the dye.
On the other hand, removing the LIF from the culture media induced mESC differentiation and it was observed that some cells were morphologically distinguishable from mESC three days later. Most of the differentiated cells were not stained by CDy1, while some other cells with mESC morphology were stained by the dye showing a similar pattern with immunocytochemical staining by Oct4 antibody (FIG. 11).

Assay [4] has as its system mESC. Put plainly: Comparison of CDy1 and ALDEFLUOR staining in mESC. Type of assay: cell-based, mouse. The settings on record: fluorescence microscopy. How it is done: (§1) In this experiment, the cells cultured on 6-well plates were incubated with 1 μM ALDEFLUOR® for one hour at 37° C. and then washed with PBS three times before ALDEFLUOR® assay buffer was added. Bright field (“B.F”) and fluorescence (FITC filter for ALDEFLUOR® and TRITC filter for CDy1) images were taken using a Nikon ECLIPSE Ti fluorescence microscope (Scale bars, 100 μm).
(§2) Among the few fluorescent dyes used for stem cell staining (Zijlmans et al., “Modification of Rhodamine Staining Allows Identification of Hematopoietic Stem Cells with Preferential Short-term or Long-term Bone Marrow-Repopulating Ability,” Proc. Natl. Acad. Sci. USA, 92:8901-8905 (1995), which is hereby incorporated by reference in its entirety) is ALDEFLUOR® which employs a fluorescent substrate BODIPY-aminoacetaldehyde for aldehyde dehydrogenase (ALDH)1A1 (Storms et al., “Isolation of Primitive Human Hematopoietic Progenitors on the Basis of Aldehyde Dehydrogenase Activity,” Proc. Natl. Acad. Sci. USA, 96: 9118-9123 (1999), which is hereby incorporated by reference in its entirety). It has been used to identify and isolate certain types of stem cells including hematopoietic, neural, and mammary stem cells as well as cancer stem cells. Whether or not ALDEFLUOR® stains ESC has not been known. […] The stemness of hESC BG01V used in this study was verified by immunocytochemical staining of TRA-1-60 (FIG. 14).

Assay [5] deals with human lung cancer cell line H522. Nature of the assay: Comparison of CDy1 and ALDEFLUOR staining in H522. The conditions noted are these: fluorescence microscopy. Type of assay: cell-based. The procedure:
as §1, §2

The test system of the next assay is mitochondria in mESC. Nature of the assay: Co-staining of mESC with CDy1 and MITOTRACKER Deep Red 633. Type of assay: cell-based, mouse. The procedure: In this experiment mESC were incubated with 500 nM CDy1, 200 nM MITOTRACKER® Deep Red 633, and 4 mg/ml Hoechst for 30 minutes at 37° C. and washed with PBS two times. The cells were mounted on slide glass and the images were taken using a Nikon ECLIPSE Ti fluorescence microscope equipped with a ×100 objective lens (Pearson's correlation coefficient=0.88; scale bar, 5 μm).
In a previous study (Kim et al., “Control of Muscle Differentiation by a Mitochondria-Targeted Fluorophore,” J. Am. Chem. Soc. 132(2): 576-579 (2009), which is hereby incorporated by reference in its entirety), CDy1 was among the compounds targeting mitochondria. To examine whether CDy1 localizes in mitochondria in mESC, the cells were co-stained with CDy1 and a mitochondria-staining commercial dye MITOTRACKER® Deep Red 633. […] In addition to the mitochondrial membrane potential which sequesters many cationic rhodamine and rosamine compounds, other factors such as stem cell specific proteins appear to play roles in the entry and retainment of CDy1 rendering it stem cell selective.

`CCCCN(CCCC)c1ccc2c(-c3cccc(CN4CCOCC4)c3)c3ccc(=N)cc-3oc2c1` [CDy1]: in assay [1], the “staining at 3 and 5 dpi” value is “scattered single cells stained”; the “staining at 7 and 9 dpi” value was “some of the clusters were stained”. Further, the “higher fluorescence intensity in mESC than in MEF (ratio of mESC to MEF fluorescence mean values)” value with mESC [2] amounted to 12.2 fold. Also, in the assay with mESC [2] (mESC vs MEF), the “mESC selectivity (in words)” value is recorded as “most selective for mESCs among the 20 hit compounds”. In addition, in assay [3], the “GFP-positive iPS cell colonies from CDy1dim cells” value is given as “no colonies” and the “GFP-positive iPS cell colonies per well from CDy1bright cells” value was determined as 51 colonies per well. In the assay on differentiated mESC, the “staining of differentiated cells” value is recorded as “not stained”. In addition, the “staining of mESC” value in the assay on mESC [4] is listed as “stained both”. The “staining of H522” value in assay [5] is “not”. In the assay on mitochondria in mESC, the “staining pattern compared with MITOTRACKER staining” value is on record as “very similar to MITOTRACKER® staining”. In the assay on mitochondria in mESC (500 nM CDy1, 200 nM MITOTRACKER Deep Red 633, 30 minutes at 37° C.), the “Pearson's correlation coefficient of CDy1 and MITOTRACKER co-localization” value was 0.88.
